The record followed here is US10189774B2 (priority 2006, dated 2019).

The conditions of data set [1]: pH 7.4.
A short description of the next data set: physchem. The conditions noted are these: water.
Data set [2] deals with human myeloma cell line derived from the ascites of a patient with multiple myeloma. The conditions noted are these: mouse, in vivo.
The test system of data set [3] is Human Gastric Cancer HGC-27 cell. Description: cells. The class given is cell-based. To be noted: for EC50: Homo sapiens, HGC-27, 72 h, read-out: EC50, HGC-27 cell growth inhibition; for HGC-27 cell growth inhibition rate: 72 hours.

In general, solubility refers to the dissolved amount per volume that the medium holds. A word on the EC50: it is the concentration giving half of the maximal effect.

Each structure is given as a SMILES string. “And” between values parts separate entries of the source, which are not always exact repeats. Equal values may be shown once. Read-outs that look alike come from different tables or passages of the source. A value given as a limit tells only on which side of the number the result lay.

Regarding `Br.CCN(CC)CCOC(=O)[C@H](Cc1ccc(N(CCCl)CCCl)cc1)NC(C)=O` [4-[bis(2-chloroethyl)amino]-N-acetyl-L-phenylalanine N,N-diethylaminoethyl ester hydrobromide], the “In vitro penetration rate (apparent flux) of HPPs” value in data set [1] (human) worked out at 1.10 mg/cm^2/h. Further, the solubility in the data set “physchem” turned out to be 300 mg/mL. Also, in data set [2] (hydrobromide), the “Life Elongation Rate” value is 287% and 266%; the “None Disease Rate” value is 4/7 and 3/7; the “Survival Period” value was 130.5 ± 1.6 days and 121.2 ± 1.8 days.

With `CS(=O)(=O)CCN(CCS(C)(=O)=O)c1ccc(CCCC(=O)O)cc1` [4-[bis(2-methylsulfonylethyl)amino]benzenebutanoic acid], in data set [1] (human), the “In vitro penetration rate (apparent flux) of parent compounds” value worked out at 0.01 mg/cm^2/h.

As to `Br.CCN(CC)CCOC(=O)CCCc1ccc(N(CCCl)CCCl)cc1` [N,N-diethylaminoethyl 4-[bis(2-chloroethyl)amino]benzenebutyrate.HBr], the “In vitro penetration rate (apparent flux) of HPPs” value in data set [1] was 1.01 mg/cm^2/h. In data set [2], the “Life Elongation Rate” value was 282% and 253%; the “None Disease Rate” value was 4/7; the “Survival Period” value is 128.5 ± 1.3 days and 115.2 ± 2.1 days.

Consider `CCN(CC)CCOC(=O)CCCc1ccc(N(CCCl)CCCl)cc1` [N,N-diethylaminoethyl 4-[bis(2-chloroethyl)amino]benzenebutyrate], for which, in data set [3], the EC50 was under 6 µM. Also, the “HGC-27 cell growth inhibition rate” value stood at 25.5% in data set [3] (final concentration 0.5 μm); 34.7% in data set [3] (final concentration 2 μm); 46.9% in data set [3] (final concentration 5 μm); 54.6% in data set [3] (final concentration 25 μm); 81.6% in data set [3] (final concentration 50 μm); 93.4% in data set [3] (final concentration 75 μm). Besides, the “HGC-27 cell growth inhibition rate” value in data set [3] (final concentration 100 μm) came to 94.7%; in data set [3] (final concentration 200 μm) it was 94.8%; in data set [3] (final concentration 500 μm), 94.8%.

For `O=C(O)CCCc1ccc(N(CCCl)CCCl)cc1` [chlorambucil], the “In vitro penetration rate (apparent flux) of parent compounds” value in data set [1] (human) was 0.01 mg/cm^2/h. For the same molecule, in data set [3], the EC50 was over 100 µM. Also, the “HGC-27 cell growth inhibition rate” value in data set [3] (final concentration 2 μm) came to 0.3%; in data set [3] (final concentration 5 μm), 1.6%; in data set [3] (final concentration 25 μm) it was 25.0%; in data set [3] (final concentration 50 μm), 34.9%; in data set [3] (final concentration 75 μm), 34.2%; in data set [3] (final concentration 100 μm), 39.2%. Moreover, the results for the “HGC-27 cell growth inhibition rate” value in data set [3] (final concentration 200 μm) and in data set [3] (final concentration 500 μm) were 47.7% and 81.0%, respectively. Further, the “Life Elongation Rate” value in data set [2] was 127% and 198%. The “None Disease Rate” value in data set [2] is 2/7 and 3/7. The “Survival Period” value in data set [2] was 57.8 ± 1.5 days and 90.2 ± 1.9 days.

With `CCN(CC)CCOC(=O)CCCc1ccc(N(CCS(C)(=O)=O)CCS(C)(=O)=O)cc1.Cl` [diethylaminoethyl 4-[bis(2-methylsulfonylethyl)amino]benzenebutyrate.HCl], in data set [2], the “Life Elongation Rate” value is 269% and 244%; the “None Disease Rate” value is 4/7 and 3/7; the “Survival Period” value is 122.5 ± 1.7 days and 111.2 ± 1.9 days.

In the case of `Br.CCN(CC)CCOC(=O)CCCc1ccc(N(CCS(C)(=O)=O)CCS(C)(=O)=O)cc1` [diethylaminoethyl 4-[bis(2-methylsulfonylethyl)amino]benzenebutyrate•HBr], the “In vitro penetration rate (apparent flux) of HPPs” value in data set [1] stood at 0.94 mg/cm^2/h.

As for `N[C@@H](Cc1ccc(N(CCCl)CCCl)cc1)C(=O)O` [melphalan], the “In vitro penetration rate (apparent flux) of parent compounds” value in data set [1] (human) is 0.01 mg/cm^2/h. In data set [2], the “Life Elongation Rate” value is 195% and 122%; the “Survival Period” value is 88.5 ± 1.8 days and 55.7 ± 1.3 days.

`CC(=O)O[C@H]1C(=O)[C@@]2(C)[C@H]([C@H](OC(=O)c3ccccc3)[C@]3(O)C[C@H](OC(=O)[C@H](O)[C@@H](NC(=O)c4ccccc4)c4ccccc4)C(C)=C1C3(C)C)[C@]1(OC(C)=O)CO[C@@H]1C[C@@H]2O` [taxol, Taxol]: the EC50 in data set [3] was about 0.013 µM. Moreover, the “HGC-27 cell growth inhibition rate” value turned out to be 10.3% in data set [3] (final concentration 0.5 nM); 21.6% in data set [3] (final concentration 1 nm); 45.0% in data set [3] (final concentration 10 nm); 76.9% in data set [3] (final concentration 25 nm); 85.2% in data set [3] (final concentration 50 nm); 92.2% in data set [3] (final concentration 100 nm). Moreover, the figures for the “HGC-27 cell growth inhibition rate” value in data set [3] (final concentration 500 nm) and in data set [3] (final concentration 5000 nm) were 94.7% and 95.8%, respectively.
